# Tests used:
# Type in all cases: biochemical
# human JAK3 (aa 795-1124) = biological target: T1, human JAK3 (aa 795-1124) (Homo sapiens, UniProt P52333); test: In vitro JAK kinase assay (TR-FRET), JAK3; settings: catalytic domain GST-fusion; ATP 0.6 μM; poly (GT)-Biotin 140 nM; 30 minutes at room temperature
# T1 construct: JAK3 (aa 795-1124); GST (N); purchased Carna Biosciences; host or cells: baculovirus expression system
# Protocol: (§1) Compounds were screened for their ability to inhibit JAK1, JAK2 and JAK3 using the assays as indicated below.
# (§2) The enzymatic activity was assayed using as substrate a biotinylated peptide, poly (GT)-Biotin (CisBio). […] The degree of phosphorylation was detected by TR-FRET (time-resolved fluorescence energy transfer).
# (§3) The enzymatic reactions took place for 30 minutes at room temperature. […] Incubate for 3 h and read on Victor 2V spectrofluorometer (PerkinElmer) set to read fluorescence resonance energy transfer.
# human JAK1 (aa 850-1154) = biological target: T2, human JAK1 (aa 850-1154) (Homo sapiens, UniProt P23458); test: In vitro JAK kinase assay (TR-FRET), JAK1; settings: catalytic domain GST-fusion; ATP 3 μM; poly (GT)-Biotin 60 nM; 30 minutes at room temperature
# T2 construct: human JAK1 (aa 850-1154); GST (N); purchased Carna Biosciences; host or cells: baculovirus expression system
# Protocol: as §1, §2, §3
# human JAK2 (aa 826-1132) = biological target: T3, human JAK2 (aa 826-1132) (Homo sapiens, UniProt O60674); test: In vitro JAK kinase assay (TR-FRET), JAK2; settings: catalytic domain GST-fusion; ATP 0.2 μM; poly (GT)-Biotin 20 nM; 30 minutes at room temperature
# T3 construct: JAK2 (aa 826-1132); GST (N); purchased Carna Biosciences; host or cells: baculovirus expression system
# Protocol: as §1, §2, §3
# T2 sequence (P23458 850-1154): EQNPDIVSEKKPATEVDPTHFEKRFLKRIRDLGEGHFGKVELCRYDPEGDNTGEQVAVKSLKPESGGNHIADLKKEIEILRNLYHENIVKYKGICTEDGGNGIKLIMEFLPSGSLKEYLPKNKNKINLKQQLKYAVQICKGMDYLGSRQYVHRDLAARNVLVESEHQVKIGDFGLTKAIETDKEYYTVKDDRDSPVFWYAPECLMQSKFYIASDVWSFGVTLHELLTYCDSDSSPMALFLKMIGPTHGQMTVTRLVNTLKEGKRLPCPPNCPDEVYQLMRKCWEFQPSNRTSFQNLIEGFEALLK
# T3 sequence (O60674 826-1132): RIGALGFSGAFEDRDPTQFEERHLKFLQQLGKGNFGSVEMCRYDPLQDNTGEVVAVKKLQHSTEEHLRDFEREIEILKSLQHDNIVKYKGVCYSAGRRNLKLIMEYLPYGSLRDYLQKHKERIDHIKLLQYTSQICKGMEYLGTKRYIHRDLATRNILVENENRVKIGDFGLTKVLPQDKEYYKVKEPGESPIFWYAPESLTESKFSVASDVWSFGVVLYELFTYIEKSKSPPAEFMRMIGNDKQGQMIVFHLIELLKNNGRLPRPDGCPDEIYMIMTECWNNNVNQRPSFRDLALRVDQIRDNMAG
# T1 sequence (P52333 795-1124): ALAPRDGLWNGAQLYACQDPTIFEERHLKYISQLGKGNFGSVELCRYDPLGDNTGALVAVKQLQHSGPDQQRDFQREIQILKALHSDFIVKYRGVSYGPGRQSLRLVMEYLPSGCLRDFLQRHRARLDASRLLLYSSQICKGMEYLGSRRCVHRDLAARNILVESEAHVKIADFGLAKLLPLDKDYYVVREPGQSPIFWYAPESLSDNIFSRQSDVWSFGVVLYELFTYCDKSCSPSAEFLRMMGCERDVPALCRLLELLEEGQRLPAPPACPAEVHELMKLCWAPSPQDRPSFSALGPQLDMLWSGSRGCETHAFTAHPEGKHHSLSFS
SMILES,IC50 (human JAK3 (aa 795-1124)),IC50 (human JAK1 (aa 850-1154)),IC50 (human JAK2 (aa 826-1132))
"O=c1[nH]cccc1Nc1ncc2[nH]c(=O)n([C@@H]3CCCC[C@@H]3CO)c2n1 (relative stereo) [Example 21, 9-(cis-2-(Hydroxymethyl)cyclohexyl)-2-(2-oxo-1,2-dihydropyridin-3-ylamino)-7H-purin-8(9H)-one]",< 100 nM,100 to 1000 nM,< 100 nM
"N#C[C@@H]1CCCC[C@H]1n1c(=O)[nH]c2cnc(Nc3ccc[nH]c3=O)nc21 (relative stereo) [Example 23, trans-2-(8-Oxo-2-(2-oxo-1,2-dihydropyridin-3-ylamino)-7H-purin-9(8H)-yl)cyclo hexanecarbonitrile]",< 100 nM,100 to 1000 nM,< 100 nM
"O=c1[nH]cccc1Nc1ncc2[nH]c(=O)n(C3CCOCC3)c2n1 [Example 1, 2-(2-Oxo-1,2-dihydropyridin-3-ylamino)-9-(tetrahydro-2H-pyran-4-yl)-7H-purin-8(9H)-one]",< 100 nM,100 to 1000 nM,< 100 nM
"O=c1[nH]cc(C(F)F)cc1Nc1ncc2[nH]c(=O)n(C3CCOCC3)c2n1 [Example 5, 2-(5-(Difluoromethyl)-2-oxo-1,2-dihydropyridin-3-ylamino)-9-(tetrahydro-2H-pyran-4-yl)-7H-purin-8(9H)-one]",< 100 nM,< 100 nM,< 100 nM
"O=c1[nH]cccc1Nc1ncc2[nH]c(=O)n(C3CCSCC3)c2n1 [Example 12, 2-(2-Oxo-1,2-dihydropyridin-3-ylamino)-9-(tetrahydro-2H-thiopyran-4-yl)-7H-purin-8(9H)-one]",< 100 nM,100 to 1000 nM,< 100 nM
"O=c1[nH]cccc1Nc1ncc2[nH]c(=O)n(C3CCCCC3)c2n1 [Example 14, 9-Cyclohexyl-2-(2-oxo-1,2-dihydropyridin-3-ylamino)-7H-purin-8(9H)-one]",< 100 nM,< 100 nM,< 100 nM
"O=c1[nH]cccc1Nc1ncc2[nH]c(=O)n([C@H]3CC[C@@H](n4cncn4)CC3)c2n1 [Example 22, 9-((1s,4s)-4-(1H-1,2,4-Triazol-1-yl)cyclohexyl)-2-(2-oxo-1,2-dihydropyridin-3-ylamino)-7H-purin-8(9H)-one]",< 100 nM,100 to 1000 nM,< 100 nM
"O=c1[nH]cccc1Nc1ncc2[nH]c(=O)n([C@@H]3CC=Cc4ccccc43)c2n1 [Example 31, (R)-9-(1,2-Dihydronaphthalen-1-yl)-2-(2-oxo-1,2-dihydropyridin-3-ylamino)-7H-purin-8(9H)-one]",< 100 nM,100 to 1000 nM,< 100 nM
"CS(=O)(=O)C[C@H]1CC[C@H](n2c(=O)[nH]c3cnc(Nc4ccc[nH]c4=O)nc32)CC1 [Example 39, 9-((1r,4r)-4-(Methylsulfonylmethyl)cyclohexyl)-2-(2-oxo-1,2-dihydropyridin-3-ylamino)-7H-purin-8(9H)-one]",100 to 1000 nM,100 to 1000 nM,< 100 nM
"O=c1[nH]cccc1Nc1ncc2c(n1)n(C1CCOCC1)c(=O)n2CCO [Example 46, 7-(2-Hydroxyethyl)-2-(2-oxo-1,2-dihydropyridin-3-ylamino)-9-(tetrahydro-2H-pyran-4-yl)-7H-purin-8(9H)-one]",< 100 nM,100 to 1000 nM,< 100 nM
"O=c1[nH]cccc1Nc1nc2c(cc1F)[nH]c(=O)n2C1CCOCC1 [Example 49, 6-Fluoro-5-(2-oxo-1,2-dihydropyridin-3-ylamino)-3-(tetrahydro-2H-pyran-4-yl)-1H-imidazo[4,5-b]pyridin-2(3H)-one]",< 100 nM,100 to 1000 nM,< 100 nM
"O=c1[nH]cccc1Nc1nc(N2CCOCC2)c2[nH]c(=O)n(C3CCOCC3)c2n1 [Example 50, 6-Morpholino-2-(2-oxo-1,2-dihydropyridin-3-ylamino)-9-(tetrahydro-2H-pyran-4-yl)-7H-purin-8(9H)-one]",< 100 nM,> 1000 nM,< 100 nM
"O=c1[nH]cncc1Nc1ncc2[nH]c(=O)n(C3CCOCC3)c2n1 [Example 51, 2-(6-Oxo-1,6-dihydropyrimidin-5-ylamino)-9-(tetrahydro-2H-pyran-4-yl)-7H-purin-8(9H)-one]",100 to 1000 nM,100 to 1000 nM,100 to 1000 nM
"C[C@H](c1ncc(F)cn1)n1c(=O)[nH]c2cnc(Nc3cnc[nH]c3=O)nc21 [Example 52, (R)-9-(1-(5-Fluoropyrimidin-2-yl)ethyl)-2-(6-oxo-1,6-dihydropyrimidin-5-ylamino)-7H-purin-8(9H)-one]",100 to 1000 nM,> 1000 nM,< 100 nM
"O=c1[nH]nc(Cl)cc1Nc1ncc2[nH]c(=O)n(C3CCOCC3)c2n1 [Example 54, 2-(6-Chloro-3-oxo-2,3-dihydropyridazin-4-ylamino)-9-(tetrahydro-2H-pyran-4-yl)-7H-purin-8(9H)-one]",< 100 nM,100 to 1000 nM,100 to 1000 nM

# From patent publication US20140170110A1, “PYRIDIN-2(1H)-ONE DERIVATIVES USEFUL AS MEDICAMENTS FOR THE TREATMENT OF MYELOPROLIFERATIVE DISORDERS, TRANSPLANT REJECTION, IMMUNE-MEDIATED AND INFLAMMATORY DISEASES” (ALMIRALL, S.A., priority 2011, published 2014)
